Here are results for 10 compounds from article PMC9118553, “In Vivo Bioconcentration of 10 Anionic Surfactants in Rainbow Trout Explained by In Vitro Data on Partitioning and S9 Clearance” (Environmental Science & Technology, 2022).

The nature of series [1]: RT-S9 substrate depletion assay, mixture of 9 anionic surfactants (AnionMixture). Conditions: for Slope of depletion curve (log concentration vs time): tested in a mixture. How it is done: (§1) An established RT-S9 substrate depletion assay was employed,[25]−[27] predating the currently available OECD guideline 319B.[28] A single batch of the characterized liver homogenate material was prepared at the US EPA lab in Duluth and shipped on dry ice to the testing facilities at the University of Amsterdam. The test was conducted using the same method applied for a series of cationic surfactants in Droge et al.[29] and is summarized together with the in vitro–in vivo extrapolation in Text S4.
(§2) Text S4: Trout liver S9 parent depletion assay details and IVIVE
(§3) Liver tissue was separately pooled from the same five rainbow trout (three males/two females, ~300 g, liver weight ~3 g) used also for the RT-S9 study on a series of cationic surfactants (Droge et al., 2021b). The liver sample was homogenized in an appropriate buffer and then centrifuged to yield a 13,000 x g supernatant (the ‘S9 fraction’, lacking only mitochondrial fractions). No further refinement towards microsomal fractions was made to remove cytosolic and lysosomal components.
(§4) Upon arrival at the University of Amsterdam the liver
(§5) S9 material was stored in a -80 °C freezer until use.
(§6) Individual chemicals were first dissolved in methanol and then further diluted to 20% methanol in 100 mM phosphate buffer to make a ~20 µM stock solution, which was then spiked as 10 µL in 190 µL of active S9 mixture. The active S9 mixture consisted of 100 mM potassium phosphate-buffered saline (PPBS) adjusted to pH 7.8, 2 mM β-NADPH, 2 mM UDPGA, 0.1 mM PAPS, 5 mM GSH, 10 μg/mL alamethicin (in methanol carrier; 0.1% v/v final concentration), and 2 mg/mL S9 protein. The substrate depletion assays were performed using the multiple vial method described in OECD TG 319B, employing two or three separately spiked series.
(§7) Reactions were performed at 11 °C in a temperature-controlled water bath (B. Braun Frigomix-R) that was placed on a 2 cm travel path shaker (Gerhardt LS 10) set at 45 rpm. As a positive […]
(§8) alkylsulfonates, no additional assays with inactivated RT-S9 were performed.
(§9) Reactions were quenched with 600 µL ice-cold acetonitrile. After 10 s vortexing and 5 min centrifugation (Hermle Z300, 2500 rpm), 100 µL clear supernatant was transferred into 300 µL glass inserts placed in new autosampler vials, and mixed with 100 µL pure water. Concentrations were measured using a Prominence UFLC-XR system (Shimadzu) coupled to a tandem mass spectrometer (QTRAP 4000, Applied Biosystems) with a Turbo Ion spray source operated at 400 ◦C. For chromatographic separations, a 100 x 2.1mm x 2.7 µm Supelco Ascentis Express column was used (40 °C), with eluent A: pure water with 2 mM ammonium acetate, and eluent […]
(§10) prepared in 50% acetonitrile/water, calibration curves used covered at least four points in a log-linear range. The lowest external standard to fit the log-linear calibration curve served as limit of quantification, requiring a peak of at least 10x the average noise.
(§11) Each vial was treated as an independent vial with recorded exposure time. Log-transformed concentration data of the parent compound were plotted against exposure time (min) and analysed using Graphpad PRISM 8. […]
(§12) the slope (min-1) was multiplied by -2.3 and by 60 (min h-1) to obtain a first order depletion rate […]
(§13) Extrapolation of kdep to whole body rate biotransformation rate constant (kB-S9) The basic approach to extrapolate first order depletion rate constants (k dep) to whole body

Series [2] can be described thus: RT-S9 substrate depletion assay, individual compounds, with IVIVE. Conditions: for CLint,S9 / CLint,in vivo set to LOD/3 for extrapolation: s9. Here is the method:
as §1, with “The in vitro intrinsic clearance by the S9 fraction of rainbow trout liver was measured for the same 11 anionic surfactants used in the BCF experiment as separate compounds. […] An” for “An”
as §2, §3, §4, §5, §6, §7, §8, §9, §10, §11, §12, §13

A short description of series [3]: Baseline screening BCF (0.0125 DMLW, equilibrium partitioning, no biotransformation). Conditions: for Log baseline BCF: determined as 0.0125 DMLW. From the text: Recently, the concept of a baseline screening BCF was introduced for surfactants, based on equilibrium partitioning assuming no biotransformation.[19] The baseline screening BCF for the study chemicals exceeded the measured BCF by 1–2.5 orders of magnitude (Table S16), providing further evidence that biotransformation is an important factor influencing the elimination—and thereby the BCF—of the anionic surfactants studied here in rainbow trout. The deviation of PFOA and PFOS from the regression between BCF and DMLW (Figure 1, upper panel) is attributable to them not being biotransformed.
Table S16: Comparison of the BCF (determined with the measured concentrations in water) and the baseline screening BCF (determined as 0.0125 DMLWa)
CHEMICAL Log BCF Log baseline BCF Log difference […]
a Droge, S. T. J.; Scherpenisse, P.; Arnot, J. A.; Armitage, J. M.; McLachlan, M. S.; Nichols, J.; von der Ohe, P.; Bonnell, M.; Hodges, G. Screening the baseline fish bioconcentration potential of various types of surfactants using phospholipid binding data. Environ. Sci.: Processes Impacts

For series [4] the following is noted: cited from earlier work; for log DMW, membrane-water distribution ratio: marked * = measured, used for IVIVE, same values as Table 3.
Setting [5] is: both, rainbow trout, 1 µM, pH 7.8.

Read-outs that look alike come from different tables or passages of the source. Marks after values point to notes of the source that are not given here.

`CCCCCCCCCCc1ccc(S(=O)(=O)O)cc1` [C10-1-LAS, 1-n-(p-sulfophenyl)decane]: in series [1], the “clearance rate lower in AnionMixture compared to single compound assay (factor)” value was “twofold” and the “Slope of depletion curve (log concentration vs time)” value (“Slope … (log concentration vs time)” for short) was -0.0050 min-1. Further, in series [2], the “kB-S9, biotransformation rate constant from in vitro RT-S9 assay” value (from here on “kB-S9, biotransformation rate constant”) was 0.041 (0.037–0.045) h^–1 and the “CLint,S9” value is given as 0.61 mL h-1 mg protein-1. Further, in series [3], the “Log difference (baseline BCF vs BCF)” value is recorded as 1.99 L kg-1 ww and the “Log baseline BCF” value stood at 3.20 L kg-1 ww.
Take `CCCCCCCCCCS(=O)(=O)O` [C10SO3, decylsulfonate]: in series [1], the “clearance rate lower in AnionMixture compared to single compound assay (factor)” value is on record as 6 and the “Slope … (log concentration vs time)” value is on record as -0.0111 min-1. In series [2], the “kB-S9, biotransformation rate constant” value is recorded as 0.366 (0.33–0.40) h^–1 and the “CLint,S9” value stood at 4.54 mL h-1 mg protein-1. In addition, in series [3], the “Log difference (baseline BCF vs BCF)” value was found to be 2.48 L kg-1 ww and the “Log baseline BCF” value is 1.11 L kg-1 ww. Moreover, the “log DMW, membrane-water distribution ratio” value in series [4] is 3.01. In addition, the “log DMLW” value in series [4] (measurement from Droge) is reported as 3.01 ^e L kg^–1.
`CCCCCCCCCCCS(=O)(=O)O` [C11SO3, undecylsulfonate]: in series [2], the “kB-S9, biotransformation rate constant” value is reported as 0.225 (0.21–0.24) h^–1 and the “CLint,S9” value stood at 3.05 mL h-1 mg protein-1. Moreover, in series [3], the “Log difference (baseline BCF vs BCF)” value is reported as 2.35 L kg-1 ww and the “Log baseline BCF” value was found to be 1.49 L kg-1 ww. Further, the “log DMW, membrane-water distribution ratio” value in series [4] is 3.39.
Turning to `CCCCCCCCCCCOS(=O)(=O)O` [C11SO4, undecylsulfate], in series [1], the “clearance rate lower in AnionMixture compared to single compound assay (factor)” value is “twofold” and the “Slope … (log concentration vs time)” value was -0.0202 min-1. In addition, in series [2], the “kB-S9, biotransformation rate constant” value is on record as 0.151 (0.136–0.166) h^–1 and the “CLint,S9” value worked out at 2.81 mL h-1 mg protein-1. For the same compound, in series [3], the “Log difference (baseline BCF vs BCF)” value is listed as 2.37 L kg-1 ww and the “Log baseline BCF” value was determined as 2.26 L kg-1 ww. For the same compound, the “log DMW, membrane-water distribution ratio” value in series [4] was 4.16.
Regarding `CCCCCCCCCCCCOCCOCCOCCOCCOS(=O)(=O)O` [C12-EO4-SO4, dodecyltetraethoxysulfate], the “Slope … (log concentration vs time)” value in series [1] is -0.0216 min-1. For the same compound, in series [2], the “kB-S9, biotransformation rate constant” value is 0.084 (0.059–0.109) h^–1 and the “CLint,S9” value is on record as 1.30 mL h-1 mg protein-1. Besides, in series [3], the “Log difference (baseline BCF vs BCF)” value amounted to 2.38 L kg-1 ww and the “Log baseline BCF” value was found to be 2.34 L kg-1 ww. In addition, the “log DMW, membrane-water distribution ratio” value in series [4] is 4.24. The “log DMLW” value in series [4] (measurement from Droge et al.) was 4.24 ^f L kg^–1.
On to `CCCCCCCCCCCCCS(=O)(=O)O` [C13SO3, tridecylsulfonate], for which, in series [2], the “kB-S9, biotransformation rate constant” value is on record as 0.032 (0.028–0.036) h^–1 and the “CLint,S9” value was 0.45 mL h-1 mg protein-1. Besides, in series [3], the “Log difference (baseline BCF vs BCF)” value is on record as 1.90 L kg-1 ww and the “Log baseline BCF” value came out at 2.56 L kg-1 ww. In series [4], the “log DMW, membrane-water distribution ratio” value is recorded as 4.46. In series [4] (measurement from Droge), the “log DMLW” value was 4.46 ^e L kg^–1.
On to `CCCCCCCCCCCCCOS(=O)(=O)O` [C13SO4, tridecylsulfate], for which the “Slope … (log concentration vs time)” value in series [1] is listed as -0.0042 min-1. Also, in series [2], the “kB-S9, biotransformation rate constant” value was 0.028 (0.022–0.034) h^–1 and the “CLint,S9” value is given as 0.40 mL h-1 mg protein-1. In series [3], the “Log difference (baseline BCF vs BCF)” value came out at 1.78 L kg-1 ww and the “Log baseline BCF” value is listed as 3.31 L kg-1 ww. Also, the “log DMW, membrane-water distribution ratio” value in series [4] is given as 5.21. Moreover, the “log DMLW” value in series [4] (measurement from Droge) is on record as 5.21 ^e L kg^–1.
`CCCCCCCCCCCCCCS(=O)(=O)O` [C14SO3, tetradecylsulfonate]: the “Slope … (log concentration vs time)” value in series [1] is listed as -0.0010 min-1. Further, in series [2], the “factor by which kB-S9 was less than kB-BCF” value is given as 11; the “kB-S9, biotransformation rate constant” value is recorded as 0.002 ^h h^–1; the “reaction rate set to LOD/3 for extrapolation” value is 0.05 h⁻¹; the “CLint,S9” value was “n.s”. For the same compound, the “CLint,in vivo set to LOD/3 for extrapolation” value in series [2] was ~ 3.5 mL h-1 g liver-1. In series [3], the “Log difference (baseline BCF vs BCF)” value was determined as 1.58 L kg-1 ww and the “Log baseline BCF” value was 3.05 L kg-1 ww. The “log DMW, membrane-water distribution ratio” value in series [4] is reported as 4.95. Further, in series [4] (measurement from Droge), the “log DMLW” value is given as 4.95 ^e L kg^–1.
As for `CCCCCCCCCCCCCCCCS(=O)(=O)O` [C16SO3, hexadecylsulfonate], the “Slope … (log concentration vs time)” value in series [1] is on record as -0.0008 min-1. Further, in series [2], the “kB-S9, biotransformation rate constant” value was 0.002 ^h h^–1; the “reaction rate set to LOD/3 for extrapolation” value is 0.05 h⁻¹; the “CLint,S9” value is on record as “n.s”; the “CLint,in vivo set to LOD/3 for extrapolation” value is reported as ~ 3.5 mL h-1 g liver-1. In series [3], the “Log difference (baseline BCF vs BCF)” value is 1.15 L kg-1 ww and the “Log baseline BCF” value is on record as 4.29 L kg-1 ww. Besides, in series [4], the “log DMW, membrane-water distribution ratio” value is 6.19.
Turning to `CCCCC(CC)COC(=O)CC(C(=O)OCC(CC)CCCC)S(=O)(=O)O` (stereo not shown) [DOSS, bis(2-ethylhexyl)sulfosuccinate], the “Slope … (log concentration vs time)” value in series [1] was -0.0021 min-1. Moreover, in series [2] (setting [5]), the “factor by which kB-S9 was less than kB-BCF” value was found to be 6 and the “kB-S9, biotransformation rate constant” value is given as 0.011 (0.009–0.013) h^–1. Moreover, the “CLint,S9” value in series [2] is given as 0.14 mL h-1 mg protein-1. The “Slope … (log concentration vs time)” value in series [2] (tested individually, 2 mg/mL S9 protein, 11 °C) is reported as -0.0021 min-1. In addition, in series [3], the “Log difference (baseline BCF vs BCF)” value amounted to 2.53 L kg-1 ww and the “Log baseline BCF” value turned out to be 2.68 L kg-1 ww. In addition, in series [4], the “log DMW, membrane-water distribution ratio” value was 4.58. Also, the “log DMLW” value in series [4] (measurement from Droge et al.) is given as 4.58 ^f L kg^–1.
